From US12528796B2, “Modulators of RAS GTPase” (Tosk, Inc., priority 2019, dated 2026)

Tested on: SW620 cells (KRAS-G12V)
Assay: Cell proliferation / cytotoxicity assay (CellTiter-Glo 2.0)
Format: cell-based
Settings: Homo sapiens, SW-620, 72 h, SW620 cell line (KRAS-G12V), 72 hours incubation, luminescence (CellTiter-Glo 2.0); read-out: 5W620 IC50
Method: Compounds are assayed for inhibition of cell proliferation and killing cancer cells. Cytotoxicity assays are conducted according to the following general procedure. SW620 cells (ATCC CCL-227) are maintained in DMEM Low Glucose (Corning 10-014-CV) media supplemented with 10% fetal bovine serum and 1% PenStrep and grown at 37° C. in 5% CO2. Cells are plated into 96 well flat bottom plates (2 million/plate, ˜20,000/well, 200 μL media/well). The cells are allowed to settle and adhere to the plate bottom overnight. Compounds are diluted in media from a 10 mM stock solution starting at 50 μM, using 2-fold dilutions, in a column in a 96-well plate. Media is removed from the plate containing cells and replaced with media containing diluted compounds. Plates are incubated 72 hours at 37° C. in 5% CO2. Plates were allowed to come to room temperature and 100 μL CellTiter-Glo 2.0 reagent (Promega, G924C) is added at room temperature. Plates are shaken for 2 minutes, then allowed to stand for 15 minutes. Luminescence is read with FLx800 (BioTek Instruments). Data is plotted with GraphPad Prizm 8.0.
Dose response curves for the cytotoxicity of exemplary compounds against SW620 (KRAS-G12V) and MIA PaCa-2 (KRAS-G12C) cell lines are shown in FIG. 1A-1J.

| Structure (SMILES) | IC50 [µM] |
| --- | --- |
| Cc1ccc2ccc(F)c(-c3ccc4nc(NC5CCN(C(=O)c6ccccc6Cl)CC5)nc(C)c4c3)c2n1 [Compound 61] | 5 to 10 |
| Cc1nc(NC2CCN(Cc3ccc(Cl)cc3)CC2)nc2ccc(-c3cccc4c3CC(=O)CO4)cc12 [Compound 64] | < 5 |
| Cc1ccc2ccc(F)c(-c3ccc4nc(NC5CCNCC5)nc(C)c4c3)c2n1 [Compound 60] | < 5 |
| Cc1nc(NC2CCN(C(=O)c3ccc(F)cc3)CC2)nc2ccc(-c3cccc4c3OCCO4)cc12 [Compound 14] | < 5 |
| Cc1ncccc1-c1ccc2nc(N[C@H]3CC[C@@H](NC4Cc5cccc(Cl)c5C4)CC3)nc(C)c2c1 (stereo partly drawn) [Compound 69] | 5 to 10 |
| Cc1nc(N[C@@H]2CC[C@@H](Cc3ccc(Cl)cc3)NC2)nc2ccc(-c3cccc4c3CCCC4)cc12 [Compound 37] | 5 to 10 |
| Cc1nc(NC2CCN(Cc3ccc(Cl)cc3)CC2)nc2ccc(-c3cccc4c3CCNC4)cc12 [Compound 4, N-(1-(4-chlorobenzyl)piperidin-4-yl)-4-methyl-6-(1,2,3,4-tetrahydroisoquinolin-5-yl)quinazolin-2-amine] | 5 to 10 |
| Cc1nc(NC2CCN(C(=O)c3ccc(Cl)cc3)CC2)nc2ccc(-c3cccc4c3CCCC4)cc12 [Compound 23] | < 5 |
| Cc1nc(NC(C)c2cccnc2)nc2ccc(-c3cccc4c3CCCC4)cc12 (stereo not drawn) [Compound 34] | 5 to 10 |
| Cc1nc(NC2CCN(Cc3ccc(Cl)cc3)CC2)nc2ccc(-c3ccnc(N4CCCCC4)c3F)cc12 [Compound 47] | < 5 |
| Cc1nc(NC2CCN(Cc3ccc(Cl)cc3)CC2)nc2ccc(-c3cccc4c3NC(=O)CC4)cc12 [Compound 65] | < 5 |
| Cc1nc(NC2CCN(Cc3ccc(Cl)cc3)CC2)nc2ccc(-c3cccc4c3OCC(=O)N4)cc12 [Compound 70] | 5 to 10 |
| Cc1nc(N2CCC(N3Cc4ccccc4CC3=O)C2)nc2ccc(-c3cccc4c3OCCO4)cc12 (stereo not drawn) [Compound 9] | 5 to 10 |
| COc1cc(-c2ccc3nc(NC4CCN(Cc5ccc(Cl)cc5)CC4)nc(C)c3c2)c(Cl)cn1 [Compound 51] | < 5 |
| Cc1nc(NC2CCN(Cc3ccc(Cl)cc3)CC2)nc2ccc(-c3ccncc3C#N)cc12 [Compound 44] | 5 to 10 |
| Cc1nc(NC2CCN(C(=O)c3ccccc3Cl)CC2)nc2ccc(-c3cccc4c3OCCO4)cc12 [Compound 16] | < 5 |
| Cc1nc(NC2CCN(Cc3ccc(Cl)cc3)CC2)nc2ccc(-c3cc(F)cc4c3OC(C)(C)C(=O)N4)cc12 [Compound 30] | < 5 |
| Cc1nc(NC2CCN(Cc3ccc(Cl)cc3)CC2)nc2ccc(-c3cccc4c3C(=O)CCC4)cc12 [Compound 32] | < 5 |
| COc1ccccc1C(=O)N1CCC(Nc2nc(C)c3cc(-c4cccc5c4OCCO5)ccc3n2)CC1 [Compound 17] | 5 to 10 |
| Cc1ncccc1-c1ccc2nc(NC3CCN(Cc4ccc(Cl)cc4)CC3)nc(C)c2c1 [Compound 54] | < 5 |
| Cc1nc(NC2CCN(Cc3ccc(Cl)cc3)CC2)nc2ccc(-c3cccc4c3CCCC4)cc12 [Compound 21] | < 5 |

| Structure (SMILES) | IC50 [µM] |
| --- | --- |
| COc1nccc(-c2ccc3nc(NC4CCN(Cc5ccc(Cl)cc5)CC4)nc(C)c3c2)c1Cl [Compound 53] | < 5 |
| Cc1nc(NC2CCN(Cc3ccc(Cl)cc3)CC2)nc2ccc(-c3cccc4c3OCC3(CC3)CO4)cc12 [Compound 41] | 5 to 10 |
| Cc1ncccc1-c1ccc2nc(NC3CCN(C(=O)c4ccc(Cl)cc4)CC3)nc(C)c2c1 [Compound 66] | 5 to 10 |
| Cc1nc(NC2CCN(Cc3ccc(Cl)cc3)CC2)nc2ccc(-c3cccc4c3C(=O)CCO4)cc12 [Compound 63] | < 5 |
| Cc1nc(NC2CCN(C(=O)c3cccc(Cl)c3)[C@H](C)C2)nc2ccc(-c3cccc4c3OCCO4)cc12 (stereo partly drawn) [Compound 25] | 5 to 10 |
| COc1cnccc1-c1ccc2nc(NC3CCN(Cc4ccc(Cl)cc4)CC3)nc(C)c2c1 [Compound 49] | < 5 |
| Cc1nc(NC2CCN(Cc3ccc(Cl)cc3)CC2)nc2ccc(-c3ccncc3C(N)=O)cc12 [Compound 45] | < 5 |
| Cc1nc(NC2CCN(C(=O)c3ccccc3Cl)CC2)nc2ccc(-c3cccc4c3CCCC4)cc12 [Compound 36] | 5 to 10 |
| Cc1nc(NC2CCN(Cc3ccc(Cl)cc3)CC2)nc2ccc(-c3cncc4ccccc34)cc12 [Compound 59] | 5 to 10 |
| Cc1nc(NC2CCN(Cc3ccc(Cl)cc3)CC2)nc2ccc(-c3ccnc(N4CCOCC4)c3F)cc12 [Compound 46] | 5 to 10 |
| Cc1nc(NC2CCN(Cc3ccc(Cl)cc3)CC2)nc2ccc(-c3cccnc3OC(C)C)cc12 [Compound 56] | < 5 |
| Cc1nc(N[C@@H]2CC[C@H]3CC[C@@H](C2)N3C(=O)c2ccc(Cl)cc2Cl)nc2ccc(-c3cccc4c3CCCC4)cc12 [Compound 73] | 5 to 10 |
| Cc1nc(NC2CCN(C(=O)c3ccc(Cl)cc3)CC2)nc2ccc(-c3cccc4[nH]nc(C)c34)cc12 [Compound 18] | < 5 |
| COc1c(Cl)cc(F)cc1-c1ccc2nc(NC3CCN(Cc4ccc(Cl)cc4)CC3)nc(C)c2c1 [Compound 20] | < 5 |
| Cc1ncccc1C(=O)N1CCC(Nc2nc(C)c3cc(-c4cccc5c4OCCO5)ccc3n2)CC1 [Compound 13] | < 5 |
| Cc1nc(N[C@@H]2CC[C@H]3CC[C@@H](C2)N3C(=O)c2ccccc2Cl)nc2ccc(-c3cccc4c3CCCC4)cc12 [Compound 72] | 5 to 10 |
| Cc1nccc(-c2ccc3nc(NC4CCN(Cc5ccc(Cl)cc5)CC4)nc(C)c3c2)c1Cl [Compound 52] | < 5 |
| COc1c(Cl)cccc1-c1ccc2nc(NC3CCN(Cc4ccc(Cl)cc4)CC3)nc(C)c2c1 [Compound 28] | < 5 |
| Cc1nc(NC2CCN(C(=O)c3ccc(Cl)cc3)CC2)nc2ccc(-c3cccc4c3OCCO4)cc12 [Compound 2, (4-chlorophenyl)(4-((6-(2,3-dihydrobenzo[b][1,4]dioxin-5-yl)-4-methylquinazolin-2-yl)amino)piperidin-1-yl)methanone] | 5 to 10 |
| Cc1nc(NC2CCN(Cc3ccc(Cl)cc3)CC2)nc2ccc(-c3ccnc4[nH]ccc34)cc12 [Compound 42] | < 5 |
| Cc1ccc2ccc(F)c(-c3ccc4nc(NC5CCN(Cc6ccc(F)cc6)CC5)nc(C)c4c3)c2n1 [Compound 19] | 5 to 10 |

| Structure (SMILES) | IC50 [µM] |
| --- | --- |
| Cc1nc(N[C@H]2CC[C@@H](NC3Cc4cccc(Cl)c4C3)CC2)nc2ccc(Br)cc12 (stereo partly drawn) [Compound 67] | 5 to 10 |
| COc1c(Cl)cccc1-c1ccc2nc(NC3CCN(C(=O)c4ccccc4Cl)CC3)nc(C)c2c1 [Compound 43] | 5 to 10 |
| COc1cc(-c2ccc3nc(NC4CCN(Cc5ccc(Cl)cc5)CC4)nc(C)c3c2)ccn1 [Compound 50] | 5 to 10 |
| Cc1nc(N[C@H]2CC[C@@H](NC3Cc4cccc(Cl)c4C3)CC2)nc2ccc(-c3cccc4c3OCCO4)cc12 (stereo partly drawn) [Compound 68] | < 5 |
| Cc1nc(NC2CCN(Cc3ccc(Cl)cc3)CC2)nc2ccc(-c3cccnc3OCC(C)C)cc12 [Compound 57] | 5 to 10 |
| Cc1nc(NC2CCN(Cc3ccc(Cl)cc3)CC2)nc2ccc(-c3cccc4c3OCCO4)cc12 [Compound 3, N-(1-(4-chlorobenzyl)piperidin-4-yl)-6-(2,3-dihydrobenzo[b][1,4]dioxin-5-yl)-4-methylquinazolin-2-amine] | < 5 |
| COc1cccc(-c2ccc3nc(NC4CCN(Cc5ccc(Cl)cc5)CC4)nc(C)c3c2)c1OC [Compound 39] | < 5 |
| Cc1nc(N[C@@H]2CCN(C(=O)c3ccc(Cl)cc3)[C@H](C)C2)nc2ccc(-c3cccc4c3OCCO4)cc12 [Compound 12] | 5 to 10 |
| Cc1nc(NC2CCN(Cc3ccc(Cl)cc3)CC2)nc2ccc(-c3cccc4c3/C(=N/O)CCC4)cc12 [Compound 33] | < 5 |
| Cc1nc(NC2CCN(Cc3ccc(Cl)cc3)CC2)ncc1-c1cccc2c1CCCC2 [Compound 31] | < 5 |
| CC(=O)N1CCc2c(cccc2-c2ccc3nc(NC4CCN(C(=O)c5ccc(Cl)cc5)CC4)nc(C)c3c2)C1 [Compound 8] | 5 to 10 |
| Cc1cccc(-c2ccc3nc(NC4CCN(Cc5ccc(Cl)cc5)CC4)nc(C)c3c2)c1C [Compound 29] | < 5 |
| Cc1nc(NC2CCN(C(=O)c3ccccc3Cl)[C@H](C)C2)nc2ccc(-c3cccc4c3OCCO4)cc12 (stereo partly drawn) [Compound 27] | < 5 |
| COc1cccc(-c2ccc3nc(NC4CCN(Cc5ccc(Cl)cc5)CC4)nc(C)c3c2)n1 [Compound 48] | 5 to 10 |
| Cc1nc(NC2CCN(Cc3ccc(Cl)cc3)CC2)nc2ccc(-c3ccnc4ccc(Cl)cc34)cc12 [Compound 22] | 5 to 10 |
| COc1ccccc1C(=O)N1CCC(Nc2nc(C)c3cc(-c4cccc5c4OCCO5)ccc3n2)C[C@H]1C (stereo partly drawn) [Compound 26] | 5 to 10 |
| Cc1nc(NC2CCN(C(=O)c3ccc(Cl)cc3)CC2)ncc1-c1ccccc1C(C)(O)c1ccccc1 (stereo not drawn) [Compound 38] | 5 to 10 |
| COc1ncccc1-c1ccc2nc(NC3CCN(Cc4ccc(Cl)cc4)CC3)nc(C)c2c1 [Compound 55] | < 5 |
| Cc1nc(N[C@H]2CC[C@@H](N)CC2)nc2ccc(-c3cccc4c3OCC(=O)N4)cc12 [Compound 71] | 5 to 10 |
| Cc1nc(NC2CCN(C(=O)c3cccc(Cl)c3)CC2)nc2ccc(-c3cccc4c3OCCO4)cc12 [Compound 15] | 5 to 10 |

Same assay, conditions: SW620 cell line (KRAS-G12V), 72 hours incubation, luminescence (CellTiter-Glo 2.0); read-out: 5W620 IC50

| Structure (SMILES) | IC50 [µM] |
| --- | --- |
| Cc1nc(NC2CCN(C(=O)c3ccc(Cl)cc3)CC2)nc2ccc(-c3cccc4c3CCCC4)cc12 [Compound 35] | 5 to 10 |
